Series [1] in a line: clinical. As for the experimental part: (§1) The pharmacokinetic parameters were calculated using PKSolver. All P values were calculated using the R statistical programming language (paired Student’s t-test).
The test system of series [2] is endometrial cancer. The settings on record: cited from earlier work.
The nature of series [3]: Everolimus pharmacokinetics in whole blood (HPLC-MS/MS), single-agent and combined with metformin. The class given is in vivo, human. The following applies: for k el: read-out: λz (converted); for half-life: all 7 patients, mean (SD). As for the experimental part:
as §1

The conditions of series [4]: everolimus; cited from earlier work.

In series [1] (human, in vivo, 500 mg), `CN(C)C(=N)N=C(N)N` [metformin] showed an AUC of 8320 ng·h/mL and a k el of 4.72e-05 s⁻¹. The Cmax in series [1] (metformin 500 mg bid, in combination with everolimus (day 15), n = 5, mean (SD)) was 1027 (261) μg/l. Besides, in series [2] (self-reported metformin use with an mTOR inhibitor, vs. 33% without), the “rate of disease progression” value is listed as 12%. In series [2] (self-reported metformin use, 94 patients, three trials of various mTOR inhibitors, vs. 7% without), the “response rate to an mTOR inhibitor” value is listed as 18%.
In the case of `CO[C@H]1C[C@@H]2CC[C@@H](C)[C@@](O)(O2)C(=O)C(=O)N2CCCC[C@H]2C(=O)O[C@H]([C@H](C)C[C@@H]2CC[C@@H](OCCO)[C@H](OC)C2)CC(=O)[C@H](C)/C=C(\C)[C@@H](O)[C@@H](OC)C(=O)[C@H](C)C[C@H](C)/C=C/C=C/C=C/1C` [everolimus], the Cmax was 39.45 ng/mL in series [3] (everolimus 5 mg qd, in combination with metformin 500 mg bid, n = 2); 34.80 ng/mL in series [3] (everolimus 5 mg qd, single-agent, n = 2); 73.1 ng/mL in series [3] (human, whole blood, oral, everolimus 10 mg qd, single-agent (day 7), n = 5, mean (SD), read-out: Cmax). For the same molecule, the AUC was 0.713 (0.35) mg/l*h in series [3] (everolimus 10 mg qd, single-agent, AUC t = 0 to 24 h, n = 5, mean (SD)); 282 ng·h/mL in series [3] (human, whole blood, oral, 5 mg, everolimus 5 mg qd, single-agent, n = 2, read-out: AUC); 254 ng·h/mL in series [3] (human, whole blood, oral, everolimus 5 mg qd, in combination with metformin, n = 2, read-out: AUC); 639 ng·h/mL in series [3] (human, whole blood, oral, everolimus 10 mg qd, in combination with metformin, AUC t = 0 to 24 h, n = 5, mean (SD), read-out: AUC). In addition, the k el is 1.22e-05 s⁻¹ in series [3] (human, whole blood, oral, 5 mg, everolimus 5 mg qd, single-agent, n = 2); 7.78e-06 s⁻¹ in series [3] (human, whole blood, oral, 10 mg, everolimus 10 mg qd, single-agent, n = 5, mean (SD)); 9.72e-06 s⁻¹ in series [3] (human, whole blood, oral, everolimus 5 mg qd, in combination with metformin, n = 2); 8.06e-06 s⁻¹ in series [3] (human, whole blood, oral, everolimus 10 mg qd, in combination with metformin, n = 5, mean (SD)). For the same molecule, the clearance in series [3] (human, whole blood, oral, everolimus as single agent) amounted to 162 mL/min; in series [3] (human, whole blood, oral, everolimus in combination with metformin), 300 mL/min. Moreover, the half-life (in general, the time in which the quantity being followed falls by half) in series [3] (human, whole blood, oral, everolimus in combination with metformin (day 15)) is 23.2 h; in series [3] (human, whole blood, oral, everolimus single-agent (day 7)), 23.1 h. The “elimination half-life (t1/2)” value in series [4] is reported as 30 h.

These data come from publication PMC5805805 (Investigational New Drugs, 2017).
